Assay results: US9220706B2, “Inhibition of leukemic stem cells by PP2A activating agents” (Ohio State Innovation Foundation, priority 2012, dated 2015)

Columns and labels:
[1] = test system: CFSE^max/CD34^+ NBM cells; test: CFSE-mediated tracking of quiescent cells, normal bone marrow; type: cell-based, human
Protocol: CFSE-mediated tracking of cell division. Carboxyfluorescein diacetate succinimidyl diester (CFSE)-stained cells (CellTrace CFSE Proliferation Kit: Invitrogen) were cultured in the presence of the indicated drugs (dosed at time zero and at day three), and the cells were harvested after 3 or 6 days in culture, and stained with anti-CD34 PE, Annexin-V V450, and the viability stain 7-AAD (BD Bioscience) to determine the number of viable quiescent cells (CFSEmax/CD34^+/7-AAD− cells) and the percentage of quiescent and apoptosis-committed cells (CFSEmax/CD34+/Annexin V+/7-AAD±). Cells were sorted into dividing and quiescent populations for Western blot analysis. For assessment of mouse quiescent leukemic HSCs, Lin- cells from 8 week-induced SCLtTA/BCR-ABL1 mice were CFSE-stained and used as described above. Quiescent cells (CFSE^max/CD34^+) were reported as a fraction of the initial number of CD34^+ cells.

BCR-ABL1 = test: Intracellular flow staining of active BCR-ABL1 (pABL); type: cell-based, human
Protocol: (§1) Flow cytontetric analysis and sorting of HSCs. Primary CD34^+ cells were isolated by magnetic cell sorting (CD34 MultiSort; Miltenyi Biotec) and kept in IMDM supplemented with 30% FBS, 2 mM Lglutamine, rhIL-3 (20 ng/ml), rhIL-6 (20 ng/ml), rhFlt-3 ligand (100 ng/ml), and rhKL (100 ng/ml) (Stem Cell Technologies). The CD34+ fraction derived from the BM of healthy donors and the PB or BM from CML patients was stained with anti-CD34 FITC or PE, and anti-CD38 PE-Cy7 (BD Biosciences). The Lin− fraction of murine mononuclear cells was stained with anti-Sca-1 PeCy7 (BD Biosciences) and anti-c-kit APC-AlexaFluor750 (eBioscience), The CD34^+/CD38^− or the Lin−/Sca-1+/c-Kit+ (LSK) fractions were sorted by fluorescence-activated cell sorting with a FACS Aria II instrument (BD Biosciences). […]

JAK2 = test: Intracellular flow staining of active JAK2 (pJAK2); type: cell-based, human; details: CML CFSE^max/CD34^+ cells
Protocol: as §1

[2] = test system: β-catenin-driven (LEF/TCF) transcriptional activity; test: LEF/TCF reporter assay; type: cell-based, human; details: CD34^+/CD38^− CML and 32D-BCR/ABL cells
Protocol: LEF/TCF reporter assay. CD34+/CD38− CML cells were transduced with pBAR or pfuBAR (negative control) ®-catenin lentiviral reporter constructs (54), puromycin-selected and treated with the indicated drugs. Luciferase was measured using the Bright-Glo Luciferase system (Promega).

[3] = test system: GFP+ leukemic LSK and LT-HSC from SCLtTA/BCR-ABL1/GFP mice; test: BM serial transplantation, transgenic BCR-ABL1 mice; type: in vivo, mouse
Protocol: BM Serial Transplantation Assays and In Vivo Effect of FTY720 on LT-HSCs from Transgenic BCR-ABL1 Mice. 2×10^6 GFP+ BM or 3×10^3 GFP+ BM-derived LSK (Lin^−/Sca-1^+/Kit^+) cells from 4-week induced leukemic SCLtTA/BCR-ABL1/GFP mice were transplanted into lethally-irradiated FVB/N mice. After the onset of neutrophilia (4 weeks post-transplant), mice were FTY720- (10 mg/kg/day, i.p.) or vehicle-treated for 4 weeks. The number of total GFP+ cells and GFP+ long-term (LT)-HSCs (Lin^−/Sca-1^+/Kit^+/FLt3^−/CD150^+/CD48^−) was measured with a LSRII flow cytometer. BM cells (2×10^6, 1×10^6 and 0.5×10^6) from treated and untreated animals (8 mice/group) mixed with 2×10^5 FVB/N BM cells were transplanted into lethally-irradiated secondary recipients. Engraftment (GFP^+ in PB>0.1%) was monitored every 4 weeks, and LT-HSC frequency was determined 16 weeks after secondary transplant using Poisson statistics. All animal studies were IACUC approved.

SET-PP2A interaction = target: T1, SET-PP2A interaction (Homo sapiens, UniProt Q01105); test: Proximity ligation assay, SET-PP2A association; type: cell-based; details: CD34^+/CD38^− CML cells, 24 h
T1 construct: untreated and FTY720-treated (24 h) CD34^+/CD38^− CML cells; endogenous in cells; host or cells: CD34+/CD38- CML patient cells
Text: Immunofluorescence and proximity ligation assay. CD34^+/CD38^− cells from CML patient samples or LSK cells derived from induced leukemic mice were sorted, treated in liquid culture with the indicated drugs and cytospun onto glass slides. Slides were fixed in 3.7% formaldehyde, penneabilized with 0.05% Triton X-100, and stained with an Anti-®-catenin primary antibody (Cell signaling), a secondary goat F(ab′) anti-rabbit conjugated to Alexa Fluor 647, and the nuclear stain DAPI (Invitrogen); slides were mounted with Slowfade antifade reagent (Invitrogen). Microphotographs were obtained with a Zeiss LSM 510 confocal laser-scanning microscope with C-Apochromat 63/1.2 W objective. A minimum of three fields for each slide were acquired. For the Proximity Ligation Assay (PLA) CD34+/CD38− CML cells were treated, fixed, and permeabilized as described above. The slides were then simultaneously stained with a mix of mouse anti-PP2A (Millipore) and rabbit anti-SET (Globozyme) antibodies. The PLA procedure (Duolink; Olink Bioscience) was performed according to manufacturer instructions. An average of 20 z-stack ([…]) were captured with a Zeiss LSM 510 confocal laser-scanning microscope with C-Apochromat 63/1.2 W objective; at least three fields/slide were acquired. Three-dimensional projections were generated and positive signals/cell were calculated by ImageJ software (NIH).

[4] = FTY720 10 mg/kg/day i.p., 4-week treatment

T1 sequence (Q01105 1-277 isoform Q01105-2): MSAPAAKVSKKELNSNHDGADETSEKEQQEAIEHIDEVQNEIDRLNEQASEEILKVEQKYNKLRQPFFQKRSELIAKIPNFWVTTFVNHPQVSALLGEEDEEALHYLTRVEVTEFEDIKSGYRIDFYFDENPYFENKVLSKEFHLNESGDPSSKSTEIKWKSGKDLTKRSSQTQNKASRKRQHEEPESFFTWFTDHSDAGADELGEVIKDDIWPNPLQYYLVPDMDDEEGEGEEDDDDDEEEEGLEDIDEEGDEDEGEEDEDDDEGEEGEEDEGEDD

CCCCCCCCc1ccc(CCC(N)(CO)CO)cc1 [FTY720]
effect on frequency/number of normal quiescent CFSE^max cells [1]: not influenced
inhibition of BCR-ABL1 activity (pABL levels) (BCR-ABL1; bulk CD34 CML cells): occurred in the bulk
inhibition of BCR-ABL1 activity (pABL levels) (BCR-ABL1; quiescent fraction (CFSE^max) of CD34 CML cells): not in the quiescent fraction
JAK2 activity (pJAK2) (JAK2): suppressed
β-catenin transcriptional activity (LEF/TCF luciferase) [2]: markedly impaired
secondary recipients with leukemic engraftment ([3]; BM from treated mice, Table I Exp 1): 25%
Engraftment-positive at 16 weeks (>0.1% GFP+) ([3]; Experiment #1, cell dose in 2nd recipients 2,000,000): 2/8
LT-HSC frequency ([3]; Experiment #2, Poisson statistics, 16 weeks after secondary transplant): 0.45 × 10^−6
Engraftment-positive at 16 weeks (>0.1% GFP+) ([3]; Experiment #2, cell dose in 2nd recipients 500,000): 0/8
Engraftment-positive at 16 weeks (>0.1% GFP+) ([3]; Experiment #2, cell dose in 2nd recipients 1,000,000): 3/7
Engraftment-positive at 16 weeks (>0.1% GFP+) ([3]; Experiment #2, cell dose in 2nd recipients 2,000,000): 5/7
reduction of GFP^+ (leukemic) LSK [3, 4]: ≥ 50%
reduction of splenic and/or BM GFP^+ LT-HSC [3, 4]: ≥ 70%
reduction of frequency of leukemic LT-HSCs ([3]; limiting dilution analysis, Table I Exp. 2): ~80%
SET-PP2A interaction (SET-PP2A interaction): disrupts the SET-PP2A interaction
